Assay results as given in patent US20260250262A1, “NEW COMPOUND AND PHARMACEUTICAL COMPOSITION COMPRISING SAME” (SAMJIN PHARMACEUTICAL CO., LTD., priority 2023, published 2026).

Experiments:
HCT-116 cell lines = assay: Cellular NAD measurement assay (NAD/NADH-Glo); assay type: cell-based; settings: Homo sapiens; HCT-116, 24 hours treatment, intracellular NAD+/NADH level
Method: With regard to HCT-116 cell lines, the decrease in intracellular NAD+ and NADH levels due to the inhibition of NAMPT enzyme activity by compounds was evaluated using NAD/NADH-Glo™ Assay (Promega, G9072) from Promega. The cells were incubated using DMEM (Gibco, 11995-065) medium containing 10% FBS. The HCT-116 cells were incubated for 24 hours after being distributed at a density of 2,500 cells per well in a 96-well plate, and were treated with the drugs using serum-free DMEM. First, the compounds were dissolved in 100% dimethyl sulfoxide (DMSO), and then diluted in the culture medium so that the final concentration of DMSO might reach 0.5%, and treated with the drugs. The final concentration range of the compounds was 0.1 nM to 100 nM. After that, they were further incubated for 24 hours under conditions of 37° C. and CO2 5%. To conduct the NAD/NADH-Glo™ Assay, the culture medium of drug-treated cells was removed, 50 μL of DPBS was treated per well, and left at room temperature for five minutes. The required amount of NAD/NADH-Glo™ Detection Reagent (Reconstituted Luciferin Detection Reagent 1 mL, Reductase 5 μL, Reductase Substrate 5 μL, NAD Cycling Enzyme 5 μL, NAD Cycling Substrate 25 μL) was prepared according to the manufacturer's manual and treated in an amount of 50 μL per well. After incubating for two minutes at 400 rpm in a plate shaker for cell lysis, the cells were incubated for 30 minutes at room temperature, and luminescence was measured. NAD+/NADH levels were calculated by subtracting the measurement value of the blank well without cells from the measurement value of all wells and taking the 0.5% DMSO-treated control as 100%.

[1] = biological target: T1, Recombinant NAMPT protein (Homo sapiens, UniProt P43490); assay: NAMPT enzyme inhibition assay (BPS Bioscience NAMPT Inhibitor Screening Assay Kit); assay type: biochemical; settings: 30 min pre-incubation, 2 h at 30° C., fluorescence
T1 construct: purchased BPS bioscience #7176-1
Method: Recombinant NAMPT protein was added to each well of a black 96-well plate, and dilution buffer was added to a blank well instead of NAMPT protein. A 5× concentrated compound solution was added and pre-incubated at room temperature (approximately 22° C.) for 30 minutes before the start of the reaction so that the compound and protein might bind before the enzyme reaction. At this time, the concentration of NAMPT protein was adjusted and used according to the enzyme activity of each protein lot within the final concentration range of 4-10 ng/μl, and the test compound was serially diluted at a ratio of 1:3 from 1000 nM to 1 nM, and experiments were conducted with n=2 for about seven concentrations. […] The NAMPT enzyme activity (%) was calculated by subtracting the measurement value of the blank well without NAMPT protein from the measurement value of all wells, and then taking the measurement value of the control well without the compound as 100%.

[2] = system: HCT-116 (colorectal cancer); assay: Tumor cytotoxicity assay (MTT), HCT-116; assay type: cell-based; settings: Homo sapiens, HCT-116, 72 hours
Method: (§1) First, the compounds were prepared in 100% dimethyl sulfoxide (DMSO) at concentrations of 0.02 μM to 200 μM, and then diluted in the culture medium so that the final concentration of DMSO might reach 0.5%, and treated with the drugs. The final concentration range of the compounds was 0.1 nM to 1000 nM. After that, they were further incubated for 72 hours under conditions of 37° C. and CO2 5%. […] The cell viability (%) was relatively determined by subtracting the reference 650 nm optical density (O.D.) from the 570 nm O.D., and the 0.5% DMSO-treated control was set as 100% as the standard.

NCI-N87 (gastric cancer) = assay: Tumor cytotoxicity assay (MTT), NCI-N87; assay type: cell-based; settings: Homo sapiens, NCI-N87, 72 hours
Method: as §1

T1 sequence (P43490 whole entry): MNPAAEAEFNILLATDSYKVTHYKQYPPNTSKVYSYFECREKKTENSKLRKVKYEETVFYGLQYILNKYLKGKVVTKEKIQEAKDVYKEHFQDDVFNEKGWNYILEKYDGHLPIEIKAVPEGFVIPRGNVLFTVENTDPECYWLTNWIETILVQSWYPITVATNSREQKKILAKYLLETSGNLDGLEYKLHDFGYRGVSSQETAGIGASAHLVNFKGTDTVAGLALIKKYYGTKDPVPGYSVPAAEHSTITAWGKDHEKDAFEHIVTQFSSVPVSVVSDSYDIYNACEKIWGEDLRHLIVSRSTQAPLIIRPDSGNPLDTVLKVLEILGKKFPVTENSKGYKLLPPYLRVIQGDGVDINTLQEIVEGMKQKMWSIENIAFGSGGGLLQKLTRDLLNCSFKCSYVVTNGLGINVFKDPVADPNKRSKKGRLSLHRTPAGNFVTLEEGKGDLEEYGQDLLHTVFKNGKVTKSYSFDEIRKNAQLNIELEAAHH

Row | SMILES | IC50 (HCT-116 cell lines) [nM] | IC50 [1] [nM] | CC50 [2] [nM] | CC50 (NCI-N87 (gastric cancer)) [nM]
1 | O=C(NCCc1cccnc1)Nc1ccc(-c2ccncc2)c(C#Cc2ccc(F)cc2)c1 [Compound 1, 1-(3-((4-fluorophenyl)ethynyl)-4-(pyridin-4-yl)phenyl)-3-(2-(pyridin-3-yl)ethyl)urea] | 10 to 1000 | < 500 | 30 to 100 | 30 to 100
2 | O=C(NCCc1cccnc1)Nc1ccc(-c2ccc(C(=O)N3CCC(F)(F)CC3)cc2)c(C#Cc2ccc(F)cc2)c1 [Compound 2, 1-(4′-(4,4-difluoropiperidine-1-carbonyl)-2-((4-fluorophenyl)ethynyl)-[1,1′-biphenyl]-4-yl)-3-(2-(pyridin-3-yl)ethyl)urea] |  | < 500 |  | 
3 | O=C(NCCn1ccnc1)Nc1ccc(-c2ccncc2)c(C#Cc2ccc(F)cc2)c1 [Compound 3, 1-(2-(1H-imidazol-1-yl)ethyl)-3-(3-((4-fluorophenyl)ethynyl)-4-(pyridin-4-yl)phenyl)urea] |  | 500 to 1000 |  | 
4 | O=C(NCc1ccn2ccnc2c1)Nc1ccc(-c2ccncc2)c(C#Cc2ccc(F)cc2)c1 [Compound 4, 1-(3-((4-fluorophenyl)ethynyl)-4-(pyridin-4-yl)phenyl)-3-(imidazo[1,2-a]pyridin-7-ylmethyl)urea] | ≤ 10 | < 500 | < 30 | < 30
5 | O=C(NCCc1cccc(O)c1)Nc1ccc(-c2ccncc2)c(C#Cc2ccc(F)cc2)c1 [Compound 5, 1-(3-((4-fluorophenyl)ethynyl)-4-(pyridin-4-yl)phenyl)-3-(3-hydroxyphenethyl)urea] |  | > 1000 |  | 
6 | O=C(NCc1cc2cnccc2[nH]1)Nc1ccc(-c2ccncc2)c(C#Cc2ccc(F)cc2)c1 [Compound 6, 1-((1H-pyrrolo[3,2-c]pyridin-2-yl)methyl)-3-(3-((4-fluorophenyl)ethynyl)-4-(pyridin-4-yl)phenyl)urea] |  | < 500 | 30 to 100 | 
7 | O=C(NCCc1cccnc1)Nc1ccc(-c2ccncc2)c(C#Cc2ccc(C(=O)NCCN3CCCCC3)cc2)c1 [Compound 7, N-(2-(piperidin-1-yl)ethyl)-4-((5-(3-(2-(pyridin-3-yl)ethyl)ureido)-2-(pyridin-4-yl)phenyl)ethynyl)benzamide] |  | < 500 | < 30 | 
8 | O=C(NCCn1ccnc1[N+](=O)[O-])Nc1ccc(-c2ccncc2)c(C#Cc2ccc(F)cc2)c1 [Compound 8, 1-(3-((4-fluorophenyl)ethynyl)-4-(pyridin-4-yl)phenyl)-3-(2-(2-nitro-1H-imidazol-1-yl)ethyl)urea] |  | > 1000 |  | 
9 | O=C(NCCc1cccnc1)Nc1ccc(-c2cccc(N3CCOCC3)c2)c(C#Cc2ccc(F)cc2)c1 [Compound 9, 1-(2-((4-fluorophenyl)ethynyl)-3′-morpholino-[1,1′-biphenyl]-4-yl)-3-(2-(pyridin-3-yl)ethyl)urea] |  | 500 to 1000 |  | 
10 | Nc1ccc(CCNC(=O)Nc2ccc(-c3ccncc3)c(C#Cc3ccc(F)cc3)c2)cn1 [Compound 10] |  | > 1000 |  | 
11 | O=C(NCCc1ccc2ocnc2c1)Nc1ccc(-c2ccncc2)c(C#Cc2ccc(F)cc2)c1 [Compound 11] |  | > 1000 |  | 
12 | O=C(NCCc1cccnc1)Nc1ccc(-c2ccc(N3CCNCC3)cc2)c(C#Cc2ccc(F)cc2)c1 [Compound 13, 1-(2-((4-fluorophenyl)ethynyl)-4′-(piperazin-1-yl)-[1,1′-biphenyl]-4-yl)-3-(2-(pyridin-3-yl)ethyl)urea] | ≤ 10 | < 500 | < 30 | < 30
13 | O=C(NCCc1cccnc1)Nc1ccc(-c2ccncc2)c(C#Cc2ccc(C(=O)NCCN3CCC4(CCNC4)CC3)cc2)c1 [Compound 35] |  | < 500 | 30 to 100 | 30 to 100
14 | NC1CCCN(CCNC(=O)c2ccc(C#Cc3cc(NC(=O)NCCc4cccnc4)ccc3-c3ccncc3)cc2)C1 (stereo not drawn) [Compound 40] |  | < 500 | 30 to 100 | 30 to 100
15 | NC1CCN(C(=O)c2cccc(-c3ccc(NC(=O)NCCc4cccnc4)cc3C#Cc3ccc(C(=O)NCCN4CCCCC4)cc3)c2)C1 (stereo not drawn) [Compound 43] |  | > 1000 |  | 
16 | Nc1cccc(C(=O)N2CCN(c3ccc(NC(=O)NCCc4cccnc4)cc3C#Cc3ccc(F)cc3)CC2)c1 [Compound 52] |  | < 500 |  | 
17 | O=C(NCCc1cccnc1)Nc1ccc(-c2ccc3cnccc3c2)c(C#Cc2ccc(F)cc2)c1 [Compound 57] |  | < 500 |  | 
18 | NC1CCN(C(=O)c2ccc(C#Cc3cc(NC(=O)NCCc4cccnc4)ccc3-c3ccncc3)cc2)CC1 [Compound 65, 1-(3-((4-(4-aminopiperidin-1-carbonyl)phenyl)ethynyl)-4-(pyridin-4-yl)phenyl)-3-(2-(pyridin-3-yl)ethyl)urea] |  | < 500 | 30 to 100 | 

Row | SMILES | IC50 (HCT-116 cell lines) [nM] | IC50 [1] [nM] | CC50 [2] [nM] | CC50 (NCI-N87 (gastric cancer)) [nM]
19 | O=C(NCCc1cccnc1)Nc1ccc(-c2ccncc2)c(C#Cc2ccc(C(=O)NC3CCNCC3)cc2)c1 [Compound 66, N-(piperidin-4-yl)-4-((5-(3-(2-(pyridin-3-yl)ethyl)ureido)-2-(pyridin-4-yl)phenyl)ethynyl)benzamide] |  | < 500 | 30 to 100 | < 30
20 | Cn1ccc(CS(=O)(=O)c2ccc(NC(=O)NCCc3cccnc3)cc2C#Cc2ccc(F)cc2)n1 [Compound 69] |  | < 500 |  | 
21 | O=C(NCCc1cccnc1)Nc1ccc(CC(=O)N2CCCCC2)c(C#Cc2ccc(F)cc2)c1 [Compound 74] |  | < 500 |  | < 30
22 | CC(C(=O)NC1CCCCC1)c1ccc(NC(=O)NCCc2cccnc2)cc1C#Cc1ccc(C(=O)NCCN2CCCCC2)cc1 (stereo not drawn) [Compound 89] |  | < 500 | 30 to 100 | 
23 | O=C(NCCc1cccnc1)Nc1ccc(C(=O)Nc2ccccc2)c(C#Cc2ccc(C(=O)NCCN3CCCCC3)cc2)c1 [Compound 95] |  | < 500 |  | 
24 | O=C(NCCCc1cn[nH]c1)Nc1ccc(-c2ccncc2)c(C#Cc2ccc(F)cc2)c1 [Compound 110] |  | < 500 |  | 
25 | O=C(NCCc1cccnc1)Nc1ccc(N2CCNCC2)c(C#Cc2ccc(F)cc2)c1 [Compound 118] |  | > 1000 |  | 
26 | CCC(=O)Nc1ccc(NC(=O)NCCc2cccnc2)cc1C#Cc1ccc(F)cc1 [Compound 122] |  | < 500 |  | 
27 | O=C(NCCc1cccnc1)Nc1ccc(NC(=O)c2ccc(F)cc2)c(C#Cc2ccc(F)cc2)c1 [Compound 124] |  | < 500 |  | 
28 | CC(=O)Nc1ccc(C#Cc2cc(NC(=O)NCCc3cccnc3)ccc2-c2ccncc2)cc1 [Compound 126, N-(4-((5-(3-(2-(pyridin-3-yl)ethyl)ureido)-2-(pyridin-4-yl)phenyl)ethynyl)phenyl)acetamide] |  | < 500 |  | < 30
29 | Nc1cccc(C#Cc2cc(NC(=O)NCCc3cccnc3)ccc2-c2ccncc2)c1 [Compound 139] |  | < 500 |  | 
30 | Nc1cccc(C(=O)Nc2ccc(NC(=O)NCCc3cccnc3)cc2C#Cc2ccc(F)cc2)c1 [Compound 177] |  | < 500 |  | 
31 | O=C(NCCc1ccc([N+](=O)[O-])nc1)Nc1ccc(-c2ccncc2)c(C#Cc2ccc(F)cc2)c1 [Compound 182] |  | > 1000 |  | 
32 | Cn1ccc(CS(=O)(=O)c2ccc(NC(=O)NCc3ccn4ccnc4c3)cc2C#Cc2ccc(F)cc2)n1 [Compound 183, 1-(3-((4-fluorophenyl)ethynyl)-4-(((1-methyl-1H-pyrazol-3-yl)methyl)sulfonyl)phenyl)-3-(imidazo[1,2-a]pyridin-7-ylmethyl)urea] | ≤ 10 | < 500 | < 30 | 
33 | NC1CCCN(c2ccc(NC(=O)NCCc3cccnc3)cc2C#Cc2ccc(C(=O)NCCN3CCCCC3)cc2)C1 (stereo not drawn) [Compound 184] |  | 500 to 1000 |  | 
34 | O=C(NCc1ccn2ccnc2c1)Nc1ccc(-c2ccc(N3CCNCC3)cc2)c(C#Cc2ccc(F)cc2)c1 [Compound 185] |  | 500 to 1000 |  | 
35 | Cc1nc2cc(-c3ccc(NC(=O)NCc4ccn5ccnc5c4)cc3C#Cc3ccc(F)cc3)ccc2c(=O)n1CCN [Compound 188] |  | < 500 | < 30 | < 30
